Reference: PMC11396751, “Design, Synthesis, and Anticancer Activity of Novel Enmein-Type Diterpenoid Derivatives Targeting the PI3K/Akt/mTOR Signaling Pathway” (Molecules, 2024)

Assays:
[1] = system: A549 cells; test: ROS content, H2DCFDA staining; format: cell-based, human; conditions: A549, 2, 4 and 8 µM, 48 h, flow cytometry
Procedure: Reactive oxygen species (ROS) are secondary metabolites of cells and are closely linked to the regulation of multiple biological activities. Elevated intracellular ROS levels are thought to be a hallmark of apoptosis. To determine whether 7h could affect the ROS content in cancer cells, the A549 cells were treated with different concentrations (0, 2, 4, and 8 µM) of 7h and then stained with H2DCFDA.
Flow cytometry was used to detect changes in intracellular reactive oxygen species content, and the results are shown in Figure 5b,c.
A549 cells were inoculated into 24-well plates and attached via cell adhesion. Then, gradient concentrations (0, 2, 4, and 8 µM) of 7h were added and the cells were co-incubated for 48 h. The cells were cleaned with ice-cold PBS, stained with H2DCFDA, mixed, and incubated in cells for 20 min in darkness at 25 °C. The apoptosis morphology of the cells in each group was observed and photographed using a laser confocal microscope (LSM710, Zeiss, Oberkochen, Germany).
A549 cells were inoculated into 6-well plates and attached via cell adhesion. Then, gradient concentrations (0, 2, 4, and 8 µM) of 7h were added and the cells were co-incubated for 48 h. […] The experimental data were gathered using flow cytometry (FACS Calibur, BD, Milpitas, CA, USA) and analyzed using Flow Jo software. […]

[2] = system: MCF-7 cells; test: MTT anti-proliferative assay, MCF-7; format: cell-based; conditions: Homo sapiens, MCF7, 48 h, means ± SD of three experiments
Procedure: (§1) A series of novel enmein-type diterpenoid derivatives, 5a–m, were synthesized by introducing a side chain containing a carbamate moiety at the C-6 position of compound 4. The anticancer activities of 5a–m were tested against three human cancer cell lines and one human normal cell line by MTT assay.
(§2) Human non-small cell lung cancer cell lines (A549), human liver cancer cell lines (HepG2), human breast cancer cell lines (MCF-7), and human normal cell lines (L-02) were purchased from the cell bank of the Chinese Academy of Sciences. All cells were placed in RPMI-1640 medium (added 10% fetal bovine serum, […]) and cultured in an aseptic environment with 5% CO2 at 37 °C.
(§3) All derivatives were evaluated for their anti-proliferative activities against three cancer cell lines and one normal cell line by MTT assay. The cells in the logarithmic growth phase were inoculated into 96-well plates (3 × 10^3 cells/well) and incubated for 48 h in a sterile environment with 5% CO2 at 37 °C to make them attach via cell adhesion; then, the cells were co-incubated with target compounds for 48 h. After that, MTT solution (10 µL/well) was added to the cell culture medium to continue incubation for 4 h, following which the medium was replaced with DMSO (150 µL/well). The absorbance values at 490 nm were determined using an enzyme meter (Safire 2, Tecan, Männedorf, Switzerland) and further converted to half-inhibitory concentration values of these compounds.

[3] = system: A549 cells; test: MTT anti-proliferative assay, A549; format: cell-based, human
Procedure: as §1, §2, §3

[4] = system: PI3K/Akt/mTOR pathway; test: Western blot analysis in A549 cells; format: cell-based, human; conditions: A549, 2, 4 and 8 µM, 48 h
Procedure: The PI3K/Akt/mTOR pathway is a critical intracellular signaling pathway during cancer development that regulates cellular processes such as proliferation, differentiation, apoptosis, and autophagy. Inhibiting the aberrant activation of the PI3K/Akt/mTOR signaling pathway is envisaged as a promising anticancer strategy. Based on KEGG analysis and researching the literature, the PI3K/Akt/mTOR signaling pathway is predicted to be one of the major pathways for 7h to exert its anticancer effects. Therefore, a western blot assay was performed to determine the expression of the main proteins, PI3K, p-PI3K, Akt, p-Akt, mTOR, and p-mTOR, to examine whether the anticancer ability of 7h against A549 cells is related to its modulation of the PI3K/Akt/mTOR pathway.
Western blot was used to determine the effect of 7h against the related protein expression in A549 cells. A549 cells were inoculated in 6-well plates and treated with a grdient concentrations (0, 2, 4, and 8 µM) of 7h for 48 h. The cells were collected, lysed in RIPA buffer, and heated at 100 °C for 10 min. The samples were processed via 10% sodium dodecyl sulfate-polyacrylamide gel electrophoresis (10% SDS-PAGE) and then transferred to a poly vinylidene difluoride (PVDE) membrane. […]

[5] = system: L-02 cells; test: MTT anti-proliferative assay, normal L-02 cells; format: cell-based; conditions: means ± SD of three experiments
Procedure: as §1, §2, §3

[6] = system: HepG2 cells; test: MTT anti-proliferative assay, HepG2; format: cell-based, human
Procedure: as §1, §2, §3

[7] = system: A549 cells; test: Apoptosis rate, Annexin V-FITC/PI, flow cytometry; format: cell-based, human; conditions: 48 h
Procedure: To further confirm the capacity of 7h to induce apoptosis in cancer cells, A549 cells were treated with 7h, detected using Annexin V-FITC/PI staining, and the apoptosis rate was detected by flow cytometry.
A549 cells were inoculated into 6-well plates and attached via cell adhesion. Then, gradient concentrations (0, 2, 4, and 8 µM) of 7h was added and co-incubated for 48 h. The cells were gathered and prepared as cell suspensions according to the method described in Section 4.2.3. The cell suspension was treated with Annexin V-FITC/PI staining solution, and the data were gathered using a flow cytometer (FACS Calibur, BD, Milpitas, CA, USA) and analyzed using Flow Jo software. Three attempts were performed for each treatment to eliminate experimental bias.

[8] = A549, highest concentration (8 µM per Figure 4b)

SMILES: C=C1C(=O)C23C(=O)OC45CCC(C)(C)C6C(OC(=O)CCC(=O)N7CCC(c8noc9cc(F)ccc89)CC7)OCC64C2CCC1C3O5 (single isomer, unassigned; ent-6) [Compound 7h, ent-6β,14α-Dihydroxy-(1,7–1,14)-epoxy-7,15-dioxo-6,20-hemiketal-6,7-seco-16-kaurene-6β-yl 4-(4-(6-fluorobenzo[d]isoxazol-3-yl)piperidin-1-yl)-4-oxobutanoate]
- intracellular ROS content [1]: increased significantly in a dose-dependent manner
- IC50 [2]: 6.74 ± 1.94 µM
- fold better than parental compound 4 (A549 IC50) ([3]; A549 cells): 11.03 fold
- IC50 ([3]; Homo sapiens, A549, MTT, 48 h, means ± SD of three experiments): 2.16 ± 1.4 µM
- Akt protein phosphorylation expression [4]: showed an effect on Akt protein phosphorylation expression
- expression levels of p-PI3K and p-mTOR ([4]; dose-dependent, vs blank control): effectively reduce
- IC50 ([5]; Homo sapiens, L02, 48 h): > 100 µM
- IC50 ([5]; human normal cells, 48 h): > 50 µM
- anticancer activity in words, HepG2 ([6]; HepG2 cells): low micro-molar-level anticancer activities
- IC50 ([6]; Homo sapiens, HepG2, MTT, 48 h, means ± SD of three experiments): 6.1 ± 1.24 µM
- late apoptosis [7, 8]: 41.8%
- percentage of total apoptosis [7, 8]: 58.00%
- percentage of total apoptosis ([7]; A549, lowest concentration (2 µM per Figure 4b)): 5.38%
